This is an account of results in patent US6004994A, “Heterocyclic diarylmethylene derivatives, methods of preparing them and their uses in therapeutics” (Laboratoires UPSA, priority 1998, dated 1999).

Structures are written as SMILES.

One assay deals with T1, COX-1 (Ovis aries, UniProt P05979).
T1 construct: purified enzyme from ram seminal vesicles; from tissue; host or cells: ram seminal vesicles
T1 sequence (P05979 25-600): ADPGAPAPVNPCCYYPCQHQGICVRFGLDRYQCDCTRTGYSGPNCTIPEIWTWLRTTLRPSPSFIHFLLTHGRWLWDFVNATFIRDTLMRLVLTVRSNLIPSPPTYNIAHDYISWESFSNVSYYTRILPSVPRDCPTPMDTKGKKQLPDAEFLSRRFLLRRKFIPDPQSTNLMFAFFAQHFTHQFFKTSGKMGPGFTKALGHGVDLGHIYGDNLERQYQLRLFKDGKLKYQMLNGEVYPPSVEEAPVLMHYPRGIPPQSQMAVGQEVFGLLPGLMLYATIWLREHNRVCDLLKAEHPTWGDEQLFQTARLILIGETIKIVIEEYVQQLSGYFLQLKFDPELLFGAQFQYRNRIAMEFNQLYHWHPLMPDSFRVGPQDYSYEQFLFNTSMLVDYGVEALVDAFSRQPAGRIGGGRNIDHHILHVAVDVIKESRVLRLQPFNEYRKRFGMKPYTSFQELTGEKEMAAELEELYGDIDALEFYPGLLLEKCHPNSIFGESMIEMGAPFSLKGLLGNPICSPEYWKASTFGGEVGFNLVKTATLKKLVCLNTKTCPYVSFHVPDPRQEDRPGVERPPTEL
Kind of assay: Inhibition of COX-1 enzymatic activity (PGE2 produced determined by EIA). The assay is classed as biochemical, ram (purified enzyme from ram seminal vesicles). The conditions noted are these: 10^-4 M; ram seminal vesicle COX-1, arachidonic acid 6 μM. As to the method:
(§1) The molecule studied is preincubated for 10 minutes at 25° C. with 2 U of COX-1 (purified enzyme from ram seminal vesicles) or 1 U of COX-2 (purified enzyme from ewe placenta). Arachidonic acid (6 μM for COX-1, 4 μM for COX-2) is added to the reaction medium and incubation is carried out for 5 minutes at 25° C. When incubation has ended, the enzymatic reaction is stopped by the addition of 1 N HCl and the PGE2 produced is deter mined by EIA. […] For other examples, the results are expressed in the form of IC50, the concentration in μM corresponding to 50% inhibition of the maximal enzymatic activity upon COX-1 and COX-2 (n=1 to 4 determinations).

For a further assay, the target named is T2, COX-2 (Ovis aries, UniProt P79208).
T2 construct: purified enzyme from ewe placenta; from tissue; host or cells: ewe placenta
T2 sequence (P79208 17-603): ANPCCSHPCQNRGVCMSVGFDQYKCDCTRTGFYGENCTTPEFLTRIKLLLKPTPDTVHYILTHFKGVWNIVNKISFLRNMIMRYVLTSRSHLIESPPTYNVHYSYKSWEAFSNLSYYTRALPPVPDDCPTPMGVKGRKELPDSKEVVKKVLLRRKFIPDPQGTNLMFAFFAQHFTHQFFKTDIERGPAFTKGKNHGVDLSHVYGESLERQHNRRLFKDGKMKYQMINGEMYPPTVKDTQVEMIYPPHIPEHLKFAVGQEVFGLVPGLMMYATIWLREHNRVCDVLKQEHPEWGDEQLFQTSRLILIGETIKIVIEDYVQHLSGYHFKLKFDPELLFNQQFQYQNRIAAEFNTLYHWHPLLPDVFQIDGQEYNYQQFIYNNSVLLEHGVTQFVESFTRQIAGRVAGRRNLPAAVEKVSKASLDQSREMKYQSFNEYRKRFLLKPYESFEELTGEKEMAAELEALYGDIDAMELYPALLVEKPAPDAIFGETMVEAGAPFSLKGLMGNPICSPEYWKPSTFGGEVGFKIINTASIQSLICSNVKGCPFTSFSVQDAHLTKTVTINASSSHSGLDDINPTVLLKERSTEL
Kind of assay: Inhibition of COX-2 enzymatic activity (PGE2 produced determined by EIA). To be noted: ewe placenta COX-2, arachidonic acid 4 μM; for inhibition at 10 µM: 10^-5 M; for IC50: n=1 to 4 determinations; for inhibition at 1 µM: at 10^-6 M. The assay is classed as biochemical, ewe (purified enzyme from ewe placenta). As to the method:
as §1

A further assay deals with arthritis with kaolin. Kind of assay: Analgesic activity: arthritis with kaolin in rats. The assay is classed as in vivo. The conditions noted are these: rat, oral, thirty minutes after intra-articular kaolin; dose inducing 50% decrease of the maximal quotations of control. As to the method: The analgesic activity of the compounds of the Examples was evaluated according to the method of arthritis with kaolin.
The analgesic activity is evaluated in rats by the test of arthritis with kaolin. Thirty minutes after intra-articular administration of an aqueous 10% suspension of kaolin, the product is administered orally at a rate of 1 ml 100 g (n=10 animals per dose). The results are expressed in the form of ED50, the dose in mg/kg which induces 50% decrease of the maximal quotations obtained in the control batch, calculated by linear regression.

As to `CS(=O)(=O)c1ccc(/C(=C2\CCN(C3CCCCC3)C2=O)c2ccc(Cl)cc2)cc1` [29 Z isomer], at COX-1, 100 µM produced 72% inhibition. The inhibition at 10 µM against COX-2 is 86%.

As for `CS(=O)(=O)c1ccc(/C(=C2\N=C(c3ccccc3)OC2=O)c2ccc(Cl)cc2)cc1` [77 E isomer], the inhibition at 100 µM against COX-1 was 90%. On COX-2, this compound returned an inhibition at 10 µM of 77% and an IC50 of 2830 nM.

Regarding `CS(=O)(=O)c1ccc(C(=C2CCN(CCc3ccccc3)C2=O)c2ccc(Cl)cc2)cc1` [60 Z isomer], at 100 µM the inhibition on COX-1 was 32%. This compound also gave an inhibition at 1 µM at COX-2 of 52%.

On COX-1, `CS(=O)(=O)c1ccc(C(=C2CCN(Cc3ccccc3Cl)C2=O)c2ccc(Cl)cc2)cc1` [63 Z isomer] yielded an inhibition at 100 µM of 83%. Further, on COX-2, the inhibition at 10 µM came to 88%.

In turn, `CN1CC/C(=C(/c2ccc(Cl)cc2)c2ccc(S(C)(=O)=O)cc2)C1=O` [28 Z isomer] yielded an inhibition at 100 µM against COX-1 of 6%. Also, at COX-2, the inhibition at 10 µM was 77% and the IC50 stood at 2940 nM.

On to `CS(=O)(=O)c1ccc(/C(=C2\CCSC2=O)c2ccc(Cl)cc2)cc1` [80 Z isomer], for which the ED50 with arthritis with kaolin is 13.7 mg/kg. The same compound displayed an IC50 against COX-2 of 120 nM.

At COX-2, `CS(=O)(=O)c1ccc(C(=C2CCN(Cc3ccccc3)C2=O)c2ccc(Cl)c(Cl)c2)cc1` [61 Z isomer] showed an inhibition at 1 µM of 80% and an IC50 of 229 nM.

`COc1ccc(/C(=C2/CCN(C)C2=O)c2ccc(S(C)(=O)=O)cc2)cc1` [55 E isomer] registered an inhibition at 10 µM against COX-2 of 44%.

At COX-1, `CS(=O)(=O)c1ccc(/C(=C2\SC(=S)NC2=O)c2ccc(Cl)cc2)cc1` [78 E isomer] returned an inhibition at 100 µM of 37%. Also, on COX-2, the inhibition at 10 µM stood at 72% and the IC50 was found to be 1540 nM.

As for `CS(=O)(=O)c1ccc(/C(=C2\CCN(Cc3ccccc3)C2=O)c2ccc(Cl)cc2)cc1` [31 Z isomer], the ED50 in the assay with arthritis with kaolin turned out to be 18.5 mg/kg. Also, testing at 100 µM against COX-1 gave an inhibition of 88%. Also, at 10 µM the inhibition against COX-2 was 88%.

`CN1CC/C(=C(\c2ccc(S(C)(=O)=O)cc2)c2ccc(Cl)c(Cl)c2)C1=O` [53 Z isomer] registered an inhibition at 100 µM on COX-1 of 36%. On COX-2, this compound returned an inhibition at 10 µM of 92%.

The compound `CC(=O)OCCN1CC/C(=C(/c2ccc(Cl)cc2)c2ccc(S(C)(=O)=O)cc2)C1=O` [30 Z isomer] showed an inhibition at 10 µM on COX-2 of 56%.

For the compound `Cc1cc(/C(=C2/CCN(C)C2=O)c2ccc(S(C)(=O)=O)cc2)ccc1F` [56 Z isomer], the inhibition at 10 µM on COX-2 came out at 53%.

`Cc1cccc(CN2CCC(=C(c3ccc(Cl)cc3)c3ccc(S(C)(=O)=O)cc3)C2=O)c1` [64 Z isomer] gave an inhibition at 10 µM on COX-2 of 59%.

The compound `CS(=O)(=O)c1ccc(C(=C2CCN(Cc3cccc(Cl)c3)C2=O)c2ccc(Cl)cc2)cc1` [62 Z isomer] displayed an inhibition at 100 µM against COX-1 of 79%. At COX-2, this compound gave an inhibition at 10 µM of 91%.

Compound `CS(=O)(=O)c1ccc(C(=C2CCN(Cc3ccc(Br)cc3)C2=O)c2ccc(Cl)cc2)cc1` [65 Z isomer] yielded an inhibition at 10 µM at COX-2 of 83%.

In the case of `CCN1CC/C(=C(/c2ccc(Cl)cc2)c2ccc(S(C)(=O)=O)cc2)C1=O` [32 Z isomer], testing at 100 µM on COX-1 gave an inhibition of 13%. On COX-2, this compound registered an inhibition at 10 µM of 84% and an IC50 of 2530 nM.

On to `CN1CC/C(=C(\c2ccc(S(N)(=O)=O)cc2)c2ccc(Cl)c(Cl)c2)C1=O` [33 Z isomer], for which, on COX-2, at 1 µM the inhibition was 70% and the IC50 is 393 nM.

As usually defined, the inhibition is the drop in the measured response relative to a control, in per cent. The low end stands for little suppression, the high end for strong suppression. The IC50 is the concentration needed to halve the response being measured. Low values mean greater potency, high ones weaker potency. As usually defined, the ED50 is the midpoint of the dose-response relation. The low end stands for greater potency, the high end for weaker potency.
